{
  "source": "paper PMC5152921",
  "about": "“Evolutionary and Functional Diversification of the Vitamin D Receptor-Lithocholic Acid Partnership” (PLoS ONE, 2016)",
  "assay_in_all_cases": "Mammalian 2-hybrid assay (VDR-coregulator interaction, HepG2)",
  "type_in_all_cases": "cell-based",
  "conditions_in_all_cases": "100 μM LCA",
  "key": {"Medaka VDRα": {"biological_target": "Medaka VDRα (Oryzias latipes, UniProt B2CCA0)", "sequence (B2CCA0 entry or part of it, one chain of several)": "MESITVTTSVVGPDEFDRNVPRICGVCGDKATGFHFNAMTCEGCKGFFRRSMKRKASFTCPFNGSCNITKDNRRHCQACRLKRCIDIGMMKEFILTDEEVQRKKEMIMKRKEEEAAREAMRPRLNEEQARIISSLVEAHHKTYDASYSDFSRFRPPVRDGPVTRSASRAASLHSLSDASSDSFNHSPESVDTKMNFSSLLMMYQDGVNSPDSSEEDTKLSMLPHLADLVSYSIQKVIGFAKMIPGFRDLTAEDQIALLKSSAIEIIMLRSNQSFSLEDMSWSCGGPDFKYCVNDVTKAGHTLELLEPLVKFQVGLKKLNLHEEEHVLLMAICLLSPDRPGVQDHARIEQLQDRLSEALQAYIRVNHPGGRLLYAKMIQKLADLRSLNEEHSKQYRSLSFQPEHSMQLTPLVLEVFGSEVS", "source_text": "(§1) Prey constructs included full-length VDRs fused to the herpes simplex VP16 activation domain (pVP16-VDR). Bait constructs consisted of either full-length wild-type human RXR (pM-RXRWT), a truncated human RXR mutant (pM-RXRAF2), or the defined NR box of each member of the SRC/p160 family (pM-SRC1_241-386, pM-GRIP1_479-767, or pM-ACTR392-1005) fused to the yeast Gal4 DNA-binding domain. Reporters included the Gal4 luciferase reporter (5xGal4-TATA-Luc) and pRL-CMV as an internal luciferase control.\n(§2) HepG2 cells were seeded into 96-well tissue culture plates as described above and transfected with Lipofectamine 2000 the following day. Each well received 33.6 ng pVP16-VDR, 33.6 ng pM-coregulator (where indicated), 126.6 ng 5XGal4-TATA-Luc, and 3 ng pRL-CMV. […] Positive controls were treated with 1,25D3 and vehicle controls were treated with ethanol. Luciferase activity was measured 24 hours post-exposure using the Dual-Glo Luciferase Assay System described above. Raw luciferase data were normalized to the pRL-CMV luciferase control. VDR-coregulator response was normalized to the pVP16-VDR in the absence of bait constructs. Results were analyzed using a two-way ANOVA followed by Bonferroni’s multiple comparisons test in Prism (GraphPad Inc, San Diego, CA). All experiments were replicated 3 times and conducted as groups of 4 replicate wells."}, "Medaka VDRβ": {"biological_target": "T1, Medaka VDRβ (Oryzias latipes, UniProt B2CCA1)", "T1 sequence (B2CCA1 1-425)": "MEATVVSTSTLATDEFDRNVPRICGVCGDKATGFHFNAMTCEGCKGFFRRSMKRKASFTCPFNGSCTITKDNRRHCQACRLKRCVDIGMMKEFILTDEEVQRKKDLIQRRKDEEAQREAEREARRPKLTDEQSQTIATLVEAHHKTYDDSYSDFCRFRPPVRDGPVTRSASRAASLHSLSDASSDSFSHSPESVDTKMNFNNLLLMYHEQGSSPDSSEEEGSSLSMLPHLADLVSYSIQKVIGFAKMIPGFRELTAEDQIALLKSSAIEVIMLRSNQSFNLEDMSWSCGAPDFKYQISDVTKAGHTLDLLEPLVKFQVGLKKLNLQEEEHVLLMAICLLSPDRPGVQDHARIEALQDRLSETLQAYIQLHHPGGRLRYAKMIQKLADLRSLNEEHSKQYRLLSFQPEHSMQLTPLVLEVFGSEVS", "T1 sequence (P19793 1-462 partner)": "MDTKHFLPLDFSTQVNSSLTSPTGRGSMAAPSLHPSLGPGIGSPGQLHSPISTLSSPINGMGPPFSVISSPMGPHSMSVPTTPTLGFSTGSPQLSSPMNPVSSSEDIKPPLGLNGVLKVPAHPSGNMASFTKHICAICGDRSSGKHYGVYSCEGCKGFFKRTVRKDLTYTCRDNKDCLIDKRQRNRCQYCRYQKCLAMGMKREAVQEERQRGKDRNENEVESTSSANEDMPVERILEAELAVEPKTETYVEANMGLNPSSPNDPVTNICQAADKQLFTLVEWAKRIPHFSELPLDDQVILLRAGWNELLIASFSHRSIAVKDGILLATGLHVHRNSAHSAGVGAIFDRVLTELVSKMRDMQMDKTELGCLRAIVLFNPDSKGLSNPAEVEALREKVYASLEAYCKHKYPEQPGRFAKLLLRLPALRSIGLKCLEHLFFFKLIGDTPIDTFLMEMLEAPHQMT", "source_text": "as §1, §2"}, "Skate VDR": {"biological_target": "T2, Skate VDR (Leucoraja erinacea, UniProt A0A088GDQ7)", "T2 sequence (A0A088GDQ7 1-434)": "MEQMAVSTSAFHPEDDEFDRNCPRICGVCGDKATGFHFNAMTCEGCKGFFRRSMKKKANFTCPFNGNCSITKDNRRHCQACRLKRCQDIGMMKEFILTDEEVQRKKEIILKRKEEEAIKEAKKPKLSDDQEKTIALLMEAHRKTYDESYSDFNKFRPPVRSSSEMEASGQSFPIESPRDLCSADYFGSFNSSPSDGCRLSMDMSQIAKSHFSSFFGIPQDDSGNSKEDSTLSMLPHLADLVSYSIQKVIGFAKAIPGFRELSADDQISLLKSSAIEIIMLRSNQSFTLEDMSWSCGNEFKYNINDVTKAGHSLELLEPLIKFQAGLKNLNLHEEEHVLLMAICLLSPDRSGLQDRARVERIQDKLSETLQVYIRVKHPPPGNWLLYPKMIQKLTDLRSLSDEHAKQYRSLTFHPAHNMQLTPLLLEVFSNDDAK", "T2 sequence (P19793 1-462 partner)": "T1 sequence (P19793 1-462 partner)", "source_text": "as §1, §2"}, "Lamprey VDR": {"biological_target": "T3, Lamprey VDR (Petromyzon marinus, UniProt Q7ZZY9)", "T3 sequence (Q7ZZY9 1-406)": "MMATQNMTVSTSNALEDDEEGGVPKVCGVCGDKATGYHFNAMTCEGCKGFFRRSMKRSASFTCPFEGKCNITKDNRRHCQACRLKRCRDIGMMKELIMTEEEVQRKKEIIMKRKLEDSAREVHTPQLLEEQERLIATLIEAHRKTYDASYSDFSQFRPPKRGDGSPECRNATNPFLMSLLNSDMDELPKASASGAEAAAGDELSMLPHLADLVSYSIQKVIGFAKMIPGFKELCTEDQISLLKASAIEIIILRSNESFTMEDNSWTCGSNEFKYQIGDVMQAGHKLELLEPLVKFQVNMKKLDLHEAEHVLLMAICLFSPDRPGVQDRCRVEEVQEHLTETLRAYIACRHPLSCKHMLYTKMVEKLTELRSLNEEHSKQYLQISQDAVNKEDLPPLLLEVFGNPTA", "T3 sequence (P19793 1-462 partner)": "T1 sequence (P19793 1-462 partner)", "source_text": "as §1, §2"}, "[1]": {"conditions": "any of the SRC/p160 coactivators"}, "[2]": {"conditions": "bait human RXRWT, presence and absence of SRC1"}},
  "data": [
    {"smiles": "C[C@H](CCC(=O)O)[C@H]1CC[C@H]2[C@@H]3CC[C@@H]4C[C@H](O)CC[C@]4(C)[C@H]3CC[C@]12C", "note": "[LCA, 5β-cholanic acid-3α-ol]", "values": [
      {"measurement": "VDR-RXRWT interaction (heterodimerization)", "setting": "Medaka VDRα; bait human RXRWT", "value": "Robust and significant VDR-RXRWT interactions"},
      {"measurement": "VDR-SRC1 interaction", "setting": "Medaka VDRα; cotransfection of RXRWT", "value": "strong VDR-SRC1 interactions"},
      {"measurement": "VDR-RXRWT interaction (heterodimerization)", "setting": "Medaka VDRβ; bait human RXRWT", "value": "Robust and significant VDR-RXRWT interactions"},
      {"measurement": "VDR-SRC1 interaction", "setting": "Medaka VDRβ; cotransfection of RXRWT", "value": "strong VDR-SRC1 interactions"},
      {"measurement": "VDR-SRC/p160 coactivator interaction", "setting": "Skate VDR; [1]", "value": "No protein-protein interaction was observed"},
      {"measurement": "VDR-RXRWT interaction (heterodimerization)", "setting": "Skate VDR; [2]", "value": "not observed"},
      {"measurement": "VDR-SRC/p160 coactivator interaction", "setting": "Lamprey VDR; [1]", "value": "No protein-protein interaction was observed"},
      {"measurement": "VDR-RXRWT interaction (heterodimerization)", "setting": "Lamprey VDR; [2]", "value": "not observed"}
    ]}
  ]
}
